# Earlier results, collected in patent publication US8603452B1, “Method of preventing biofouling using an anti-fouling bio-hydrogel composition” (University of South Florida, priority 2007, dated 2013).
# Where two headings read alike, the source gives them in different places.
# How the values were obtained:
# biofouling = details: hydrogel coatings containing BAC, marine environment
substance,measurement,setting,value
benzalkonium chloride [BAC],diffusion coefficient,"loss of BAC from hydrogel film, period from 12 to 50 hours, 13° C., freshwater",7.3×10^−8 cm^2 s^−1
same,diffusion coefficient,"rate of loss of the residual BAC from hydrogel film, 15° C.",5.7×10^−10 cm^2 s^−1
same,prevention of the development of biofouling (duration),biofouling,up to 12 weeks
